Reference: US11583529B2, “Treatment of inflammatory disorders” (Aldeyra Therapeutics, Inc., priority 2017, dated 2023)
“Also recorded” adds a separate entry of the source.

Tested on: rat model of diabetic macular edema (DME)
Test: Rat model of diabetic macular edema (STZ-induced diabetes), intravitreal treatment
Type: in vivo, male brown Norway rats
Method: To assess the effect of Compound I-22 in a rat model of diabetic macular edema (DME), Type 1 diabetes was induced in male brown Norway rats by intraperitoneal administration of streptozotocin (STZ; 55 mg/kg). Forty days after STZ administration, animals were assessed for the presence of diabetes by testing blood glucose levels.
Compound I-22 was supplied as a preformulated sterile solution at 5 mg/mL. The vehicle was 25% hydroxypropyl-β-cyclodextrin solution (333 mOsm/kg) in a sodium phosphate buffer, pH 7.2. Animals with diabetes were assigned to groups of ten, to receive either vehicle (HPβCD) or compound I-22.
The study consisted of three groups of male brown Norway rats. Diabetes and diabetic retinopathy were induced in Groups 2 and 3 by intraperitoneal injection of streptozotocin (STZ) on Day 0; Group 1 animals served as non-STZ (non-diabetic) untreated controls. Six and eight weeks after STZ injection, Vehicle (3.5 μL) and Compound I-22 (17.5 μg per eye; 3.5 μL) were administered intravitreally to both eyes of rats in Group 2 and Group 3, respectively. Clinical observations (daily), body weights (weekly), qualitative food consumption, and blood glucose levels (weekly) were assessed. To evaluate retinopathy, electroretinography (ERG) was conducted at Weeks 8, 9 and 10; and optical coherence tomography (OCT) and fundus fluorescein angiography (FFA) were performed pre-dose at Week 6, and at Weeks 8, 9, and 10. Animals were euthanized at 10 weeks post-STZ administration and eyes were collected for histopathological evaluation.
Type 1 diabetes was induced by intraperitoneal administration of 55 mg/kg STZ after an overnight fast. The STZ dosing solution (27.5 mg/mL) was prepared immediately prior to injection by dissolving STZ (Sigma-Aldrich Corp, St. Louis, Mo., Catalog S0130) in a citrate solution (see below) followed by filtration of the STZ solution using a 0.2 μm syringe filter (Pall Life Sciences, Ann Arbor, Mich., Catalog PN4192). The STZ dosing solution was used for injection within approximately 30 minutes after reconstitution.
Electroretinography (ERG) was performed on Days 55, 62 and 69. After an overnight dark adaption, both eyes were dilated with 1% tropicamide. Animals were anesthetized by isoflurane prior to the procedure. ERG responses to light stimuli (8.0 cd·s/m^2) were recorded by RETevet (LKC Technologies, Inc.). Implicit times and amplitudes of a-waves and b-waves were reported. There was a deviation from the protocol in which ERG was not performed prior to Test Article administration (˜Day 40). The deviation had no impact on the conclusion of the study. Baseline ERG measurements are not required to determine efficacy of the Test Article. A […] ERG assessment was added to the study.
Optical coherence tomography (OCT) and fundus fluorescein angiography (FFA) were performed on Day 41 (pre-dose) and Days 56, 63 and 70 (post-dose initiation). Both eyes were dilated with 1% tropicamide. Animals were anesthetized (by ketamine/xylazine intramuscular injection) prior to the procedures.
Retinas of both eyes in each animal were scanned by OCT (Envisu R-Class, Leica/Bioptogen). Thickness of retinal mid-layers, approximately including the outer plexiform layer (OPL), the outer nuclear layer (ONL) and the photoreceptor inner segment (IS), were measured using Bioptigen InVivoVue Reader software. For each eye, four (4) digital calipers were placed randomly on a cross-section image between OPL and IS, away from optic nerve; and measurements were exported to Microsoft Excel files. An average thickness of each retina was calculated from the four (4) measurements, using Microsoft Excel.
For FFA, ˜1.5 mL/kg fluorescein (AK-FLUOR® fluorescein injection, USP, 10%, NDC 17478253-10) was injected intraperitoneally to visualize the retinal vasculature. […]

[1] = 17.5 μg per eye IVT at 6 and 8 weeks after STZ, Week 10, vs vehicle
[2] = 17.5 μg per eye IVT, vs vehicle

Question: What does the source list for `CC(C)(O)c1cc2oc(-c3ccccc3)nc2cc1N` [Compound I-22]?
Answer: tolerability in the retina (17.5 μg per eye IVT): well tolerated; neutrophil infiltration (histopathology score) [1]: significant reduction; also recorded: blocked; retinal thickness (histopathology score) [1]: reduced retinal thickness; also recorded: statically significant decrease; also recorded: significantly reduced; severities of the retinal lesions (histopathology) (17.5 μg per eye IVT at 6 and 8 weeks after STZ, ten weeks after STZ, vs vehicle): significantly diminished; also recorded: statistically significant reductions; retinal inflammation (17.5 μg per eye IVT, model of DME): decreased; ERG, OCT, or FFA [2]: did not show statistically significant effects; diabetes-induced retinal vascular changes [2]: inhibited; also recorded: blocked; body weights, glucose levels, ERG, OCT or FFA (Group 3 vs Vehicle-treated Group 2): No statistically significant differences; Mean vascular scores (Week 8, control group 3.0, p<0.05): 2.47; OCT mean retinal thickness (Week 9, vehicle-treated group 83.3 μm): 82.3 μm; Retinal thickness (OCT) (Weeks 9 and 10, vs vehicle): reduced at Weeks 9 and 10, however it was not statistically significant; decrease in retinal vascularity score (microscopic sections of the retinas, vs vehicle, p<0.05): 36%; ERG changes (relative to the non-diabetic control group): nor were there any ERG changes; decrease in vascular leakage (vs vehicle-treated group): did not reach statistical significance
